Reference: PubChem BioAssay (NCI)
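Tested at 5 concentrations; 48 h exposure; 96-well plates; endpoints linearly interpolated, else capped at highest concentration. TGI denotes the concentration required for complete inhibition of growth.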

Assays:
Assay in all cases: inhibition of tumour cell growth, NCI panel, 48 h
A498 renal = system: A498 renal
BT-549 breast = system: BT-549 breast
CAKI-1 renal = system: CAKI-1 renal
CCRF-CEM leukemia = system: CCRF-CEM leukemia
COLO 205 colon = system: COLO 205 colon
DU-145 prostate = system: DU-145 prostate
HCC-2998 colon = system: HCC-2998 colon
HCT-116 colon = system: HCT-116 colon
HCT-15 colon = system: HCT-15 colon
HOP-62 NSCLC = system: HOP-62 NSCLC
HOP-92 NSCLC = system: HOP-92 NSCLC
HS 578T breast = system: HS 578T breast
HT29 colon = system: HT29 colon
IGROV1 ovarian = system: IGROV1 ovarian
K-562 leukemia = system: K-562 leukemia
KM12 colon = system: KM12 colon
LOX IMVI melanoma = system: LOX IMVI melanoma
M14 melanoma = system: M14 melanoma
MALME-3M melanoma = system: MALME-3M melanoma
MCF7 breast = system: MCF7 breast
MDA-MB-231 breast = system: MDA-MB-231 breast
MDA-MB-435 = system: MDA-MB-435
MDA-N = system: MDA-N
MOLT-4 leukemia = system: MOLT-4 leukemia
NCI-H226 lung = system: NCI-H226 lung
NCI-H23 lung = system: NCI-H23 lung
NCI-H460 lung = system: NCI-H460 lung
NCI/ADR-RES ovarian = system: NCI/ADR-RES ovarian
OVCAR-3 ovarian = system: OVCAR-3 ovarian
OVCAR-4 ovarian = system: OVCAR-4 ovarian
OVCAR-5 ovarian = system: OVCAR-5 ovarian
OVCAR-8 ovarian = system: OVCAR-8 ovarian
PC-3 prostate = system: PC-3 prostate
RPMI-8226 leukemia = system: RPMI-8226 leukemia
RXF 393 renal = system: RXF 393 renal
SF-295 CNS = system: SF-295 CNS
SK-MEL-2 melanoma = system: SK-MEL-2 melanoma
SK-MEL-28 melanoma = system: SK-MEL-28 melanoma
SK-MEL-5 melanoma = system: SK-MEL-5 melanoma
SK-OV-3 ovarian = system: SK-OV-3 ovarian
SN12C renal = system: SN12C renal
SNB-19 CNS = system: SNB-19 CNS
SNB-75 CNS = system: SNB-75 CNS
SR leukemia = system: SR leukemia
SW-620 colon = system: SW-620 colon
T-47D breast = system: T-47D breast
TK-10 renal = system: TK-10 renal
U251 CNS = system: U251 CNS
UACC-257 melanoma = system: UACC-257 melanoma
UACC-62 melanoma = system: UACC-62 melanoma
UO-31 renal = system: UO-31 renal
786-0 renal = system: 786-0 renal
A549 NSCLC = system: A549 NSCLC
EKVX NSCLC = system: EKVX NSCLC
HL-60(TB) leukemia = system: HL-60(TB) leukemia
NCI-H522 lung = system: NCI-H522 lung
SF-268 CNS = system: SF-268 CNS
SF-539 CNS = system: SF-539 CNS

COC(=O)[C@@H]1C=C[C@H](NC(C)=O)C1
TGI (A498 renal): > 100 µM
TGI (BT-549 breast): > 100 µM
TGI (CAKI-1 renal): > 100 µM
TGI (CCRF-CEM leukemia): > 100 µM
TGI (COLO 205 colon): > 100 µM
TGI (DU-145 prostate): > 100 µM
TGI (HCC-2998 colon): > 100 µM
TGI (HCT-116 colon): > 100 µM
TGI (HCT-15 colon): > 100 µM
TGI (HOP-62 NSCLC): > 100 µM
TGI (HOP-92 NSCLC): > 100 µM
TGI (HS 578T breast): > 100 µM
TGI (HT29 colon): > 100 µM
TGI (IGROV1 ovarian): > 100 µM
TGI (K-562 leukemia): > 100 µM
TGI (KM12 colon): > 100 µM
TGI (LOX IMVI melanoma): > 100 µM
TGI (M14 melanoma): > 100 µM
TGI (MALME-3M melanoma): > 100 µM
TGI (MCF7 breast): > 100 µM
TGI (MDA-MB-231 breast): > 100 µM
TGI (MDA-MB-435): > 100 µM
TGI (MDA-N): > 100 µM
TGI (MOLT-4 leukemia): > 100 µM
TGI (NCI-H226 lung): > 100 µM
TGI (NCI-H23 lung): > 100 µM
TGI (NCI-H460 lung): > 100 µM
TGI (NCI/ADR-RES ovarian): > 100 µM
TGI (OVCAR-3 ovarian): > 100 µM
TGI (OVCAR-4 ovarian): > 100 µM
TGI (OVCAR-5 ovarian): > 100 µM
TGI (OVCAR-8 ovarian): > 100 µM
TGI (PC-3 prostate): > 100 µM
TGI (RPMI-8226 leukemia): > 100 µM
TGI (RXF 393 renal): > 100 µM
TGI (SF-295 CNS): > 100 µM
TGI (SK-MEL-2 melanoma): > 100 µM
TGI (SK-MEL-28 melanoma): > 100 µM
TGI (SK-MEL-5 melanoma): > 100 µM
TGI (SK-OV-3 ovarian): > 100 µM
TGI (SN12C renal): > 100 µM
TGI (SNB-19 CNS): > 100 µM
TGI (SNB-75 CNS): > 100 µM
TGI (SR leukemia): > 100 µM
TGI (SW-620 colon): > 100 µM
TGI (T-47D breast): > 100 µM
TGI (TK-10 renal): > 100 µM
TGI (U251 CNS): > 100 µM
TGI (UACC-257 melanoma): > 100 µM
TGI (UACC-62 melanoma): > 100 µM
TGI (UO-31 renal): > 100 µM

O=[N+]([O-])c1ccc2c(c1)n1c(N3CCCC3)[n+]3ccccc3c1c1c3cccc[n+]3c(N3CCCC3)n21
TGI (786-0 renal): > 100 µM
TGI (A498 renal): > 100 µM
TGI (A549 NSCLC): > 100 µM
TGI (BT-549 breast): > 100 µM
TGI (CAKI-1 renal): > 100 µM
TGI (CCRF-CEM leukemia): 79.9 µM
TGI (COLO 205 colon): > 100 µM
TGI (DU-145 prostate): > 100 µM
TGI (EKVX NSCLC): > 100 µM
TGI (HCC-2998 colon): > 100 µM
TGI (HCT-116 colon): > 100 µM
TGI (HCT-15 colon): > 100 µM
TGI (HL-60(TB) leukemia): 94.1 µM
TGI (HOP-92 NSCLC): > 100 µM
TGI (HS 578T breast): > 100 µM
TGI (IGROV1 ovarian): > 100 µM
TGI (K-562 leukemia): 88.2 µM
TGI (KM12 colon): > 100 µM
TGI (LOX IMVI melanoma): > 100 µM
TGI (M14 melanoma): > 100 µM
TGI (MALME-3M melanoma): > 100 µM
TGI (MCF7 breast): > 100 µM
TGI (MDA-MB-231 breast): > 100 µM
TGI (MDA-MB-435): > 100 µM
TGI (MDA-N): > 100 µM
TGI (MOLT-4 leukemia): > 100 µM
TGI (NCI-H226 lung): > 100 µM
TGI (NCI-H23 lung): > 100 µM
TGI (NCI-H460 lung): > 100 µM
TGI (NCI-H522 lung): > 100 µM
TGI (NCI/ADR-RES ovarian): > 100 µM
TGI (OVCAR-3 ovarian): > 100 µM
TGI (OVCAR-4 ovarian): > 100 µM
TGI (OVCAR-5 ovarian): > 100 µM
TGI (OVCAR-8 ovarian): > 100 µM
TGI (PC-3 prostate): > 100 µM
TGI (RPMI-8226 leukemia): > 100 µM
TGI (RXF 393 renal): > 100 µM
TGI (SF-268 CNS): 42.6 µM
TGI (SF-295 CNS): > 100 µM
TGI (SF-539 CNS): > 100 µM
TGI (SK-MEL-2 melanoma): > 100 µM
TGI (SK-MEL-28 melanoma): > 100 µM
TGI (SK-MEL-5 melanoma): > 100 µM
TGI (SN12C renal): > 100 µM
TGI (SNB-19 CNS): > 100 µM
TGI (SNB-75 CNS): > 100 µM
TGI (SR leukemia): > 100 µM
TGI (SW-620 colon): > 100 µM
TGI (T-47D breast): > 100 µM
TGI (TK-10 renal): > 100 µM
TGI (U251 CNS): > 100 µM
TGI (UACC-257 melanoma): > 100 µM
TGI (UACC-62 melanoma): > 100 µM
